Experiments:
NK cells = assay: CD107a release of NK cells activated by K562; format: cell-based, human
Protocol: The inventor used Miltenyi human NK sorting magnetic beads to separate NK cells from human peripheral blood, and used DAKEWE NK medium to culture and expand them in vitro. On Day 8, a population of NK cells with more than 95% having positive CD56 expression could be obtained. These NK cells were taken out and treated with 0 nM, 100 nM and 200 nM dasatinib respectively for 24 hr, and then divided into two groups, one of which was not activated, and the other group was stimulated with MHC-class I molecule-deficient K562 cells for 5 hr. Then, the CD107a release of NK cells were detected in both of them.
The inventors isolated NK cells from human PBMCs, and then cultured and differentiated them in NK medium to obtain CD56-positive NK cells with a purity higher than 95%. The exploration of the threshold of NK activation with dasatinib was carried out with seven concentrations in the range of 0-50 nM, namely 0, 10, 20, 25, 30, 40 and 50 nM, and the treatment was carried out overnight. The next day, the cells were resuspended with NK medium and activated with K562. Lymphocyte activator was used as a positive control for activation, and a part of NK cells that were not activated by K562 were also kept. Two replicates were set for each group. anti-CD107a antibody and monensin were added while carrying out activation, and after co-incubation for 6 hr, the CD107a release of CD56-positive NK cells was detected by flow cytometry.
The inventors isolated NK cells from human PBMCs, and then cultured and differentiated them in NK medium to obtain CD56-positive NK cells with a purity higher than 95%. Three pretreatments were done respectively (1) absence of dasatinib pretreatment; (2) pretreatment with […] pretreatment with 50 nM dasatinib, and the cells were cultured overnight. The next day, the concentration of dasatinib was reduced, and the concentration was adjusted to 0, 7.5, 12.5, 17.5 and 25 nM respectively. […] Two replicates were set for each group.
In order to repeatedly verify that the inhibition of NK cell activation function by dasatinib has an extended effect, the inventors repeated the above experiment. […] After 4 hr of co-incubation, CD107a release from CD56 positive NK cells was detected.
The inventors used CD3-negative cells in human PBMCs, which contained more than 5% of CD56-positive NK cells. […] The next day, the cells were resuspended with NK medium and activated with K562. Lymphocyte activator was used as a positive control for activation, and a part of NK cells that were not activated by K562 were also kept. Two replicates were set for each group. anti-CD107a antibody and monensin were added while carrying out activation, and after co-incubation for 6 hr, the CD107a release of CD56-positive NK cells was detected by flow cytometry.
The inventors isolated NK cells from human PBMCs, and then cultured and differentiated them in NK medium to obtain CD56-positive NK cells with a purity higher than 95%. […] Two replicates were set for each group.

CD19-UCART cells = assay: CD107a release of CD19-UCART co-incubated with Raji, dynamic ponatinib concentration; format: cell-based, human
Protocol: In this example, the inventors used the prepared CD19-UCART and Km-edited CD19-UCART cells in the experiments. […] The next day, the concentration was adjusted to 0, 50, 100 and 200 nM in the group of 200 nM pretreatment overnight, and the concentration was adjusted to 0, 100, 200 nM and 300 nM in the group of 500 nM pretreatment overnight. […] Two technical replicates were set for each group. After 4 hr of co-incubation, CD107a release in CD8 and CAR double-positive cells was detected.

T cells = assay: T cell activation by anti-CD3/CD28 DynaBeads, CD25/CD69/4-1BB expression by flow cytometry
From the text: The inventors pre-treated T cells with dasatinib or DMSO for 5 hr, then activated T cells with anti-CD3/CD28 DynaBeads for 24 hr, and then detected the expression of activation molecules CD25, CD69 and 4-1BB by flow cytometry.
In order to verify the tolerance of the LCK-T316I mutation to the function of dasatinib, the inventors carried out experimental verification on the T cells with LCK edited with different sgRNA lengths prepared in Example 2.
The inventors isolated CD3-positive T cells from human peripheral blood and divided them into eleven portions for processing, with 1e5 cells in each portion. One of these portions was not treated with dasatinib, anti-CD3/CD28 DynaBeads were not added to activate TCR, and this portion was as the initial control group; the other 10 portions of cells were pretreated with different concentrations of dasatinib for 4 hr, ten concentrations ranging from 0 nM to 50 nM were set, and then anti-CD3/CD28 DynaBeads were added to activate TCR signals overnight. On the second day, the expression of CD25, CD69 and 4-1BB activation signals was detected, and the activation of TCR signals was detected. Two replicates were set for each group of experiments.
The inventors divided each of the three groups of edited cells into 6 sub-groups and cultured them in a flat-bottomed 96-well plate. Each sub-group contained two technical replicates, and each well contained 0.15×10^6 cells. […] Subsequently, the cells were cultured for 18 hr. The activated T cell surface marker molecule 4-1BB was detected by using the APC-labeled murine IgG monoclonal antibody, and the activated T cell surface marker molecule CD25 was detected by using the PE-labeled murine IgG monoclonal antibody, and the activated T cell surface marker CD69 was detected by FITC-labeled murine IgG monoclonal antibody.
The inventors conducted research using two groups of T cells (CBE3 control group and Km edited group) in the above experiments. The experimental procedure is basically the same as the above-mentioned experiment (FIG. 32B). The two groups of edited cells were each divided into 7 sub-groups and cultured them in a flat-bottomed 96-well plate. Each sub-group contained two technical replicates, and each well contained 0.15×10^6 cells. […] Subsequently, the cells were cultured for 18 hr. The activated T cell surface marker molecule 4-1BB was detected by using the APC-labeled murine IgG monoclonal antibody, and the activated T cell surface marker molecule CD25 was detected by using the PE-labeled murine IgG monoclonal antibody, and the activated T cell surface marker CD69 was detected by FITC-labeled murine IgG monoclonal antibody.

anti-BCMA-CAR-T cells = assay: CD107a translocation of anti-BCMA-CAR-T cells co-incubated with target cells; format: cell-based, human; conditions: wild-type anti-BCMA CAR-T, adjusted to 0 nM
[1] = CBE3 control group, 200 nM ponatinib
[2] = Km edited group, 500 nM ponatinib
[3] = Km group (30% T316I), 200 nM ponatinib
[4] = Sg12 control group, 200 nM ponatinib
[5] = second experiment, Km group, 200 nM ponatinib

## Cc1ccc(C(=O)Nc2ccc(CN3CCN(C)CC3)c(C(F)(F)F)c2)cc1C#Cc1cnc2cccnn12 [ponatinib]
NK cells; NK cells, highest ponatinib pretreatment (200 nM), lowered to 0 nM, K562
  release of CD107a: above 38%
NK cells; ponatinib
  concentration that effectively inhibits NK cell activation in vitro: 200 nM
CD19-UCART cells
  concentration that shuts down activation of CD19-UCART with LCK-T316I mutation: 500 nM
CD19-UCART cells; CD19-UCART group, 200 nM pretreatment overnight, adjusted to 0 nM, Raji 4 hr
  percentage of CD107a-positive cells: 17.2%
CD19-UCART cells; CD19-UCART group, 200 nM pretreatment, 50 nM
  percentage of CD107a-positive cells: 0.485%
CD19-UCART cells; CD19-UCART group, 200 nM pretreatment, 200 nM, Raji 4 hr
  percentage of CD107a-positive cells: 0.735%
CD19-UCART cells; CD19-UCART group, 500 nM pretreatment, 300 nM
  percentage of CD107a-positive cells: 0.495%
CD19-UCART cells; CD19-UCART group, 500 nM pretreatment, adjusted to 0 nM
  percentage of CD107a-positive cells: 1.73%
CD19-UCART cells; Km-edited CD19-UCART group, 200 nM pretreatment, 200 nM
  percentage of CD107a-positive cells: 5.12%
CD19-UCART cells; Km-edited CD19-UCART group, 200 nM pretreatment, adjusted to 0 nM
  percentage of CD107a-positive cells: 16.6%
CD19-UCART cells; Km-edited CD19-UCART group, 500 nM pretreatment, 300 nM
  percentage of CD107a-positive cells: 1.47%
CD19-UCART cells; Km-edited CD19-UCART group, 500 nM pretreatment, adjusted to 0 nM
  percentage of CD107a-positive cells: 11.15%
T cells; 1000 nM ponatinib
  number of cells (survival of T cells): significantly reduced
T cells; [1]
  CD25 and 4-1BB double-positive cells: 1.00%
  CD25 and CD69 double-positive cells: 5.59%
T cells; [2]
  CD25 and 4-1BB double-positive cells: 2.42%
  CD25 and CD69 double-positive cells: 6.75%
T cells; [3]
  CD25 and 4-1BB double-positive cells: 24.1%
  CD25 and CD69 double-positive cells: 17.7%
T cells; [4]
  CD25 and 4-1BB double-positive cells: 1.85%
  CD25 and CD69 double-positive cells: 5.31%
T cells; in vitro
  concentration that effectively inhibits activation of T cells: 200 nM
T cells; [5]
  cells expressing CD25 and 4-1BB: 19.71%
  cells expressing CD25 and CD69: 23.9%
anti-BCMA-CAR-T cells; 200 nM ponatinib pretreatment, RPMI-8226 4 hr
  percentage of CD107a positive cells: about 16%
anti-BCMA-CAR-T cells; 500 nM pretreatment
  percentage of CD107a positive cells: about 3%
